Laboratory results: US11369650B2, “Methods for reversing multiple resistance in animal cells” (priority 2004, dated 2022)

Key:
[1] = test system: U373 tumour cells; experiment: Southern blot of dl520 replication after Irinotecan; format: cell-based; conditions: U373, 5 μM Irinotecan 24 h before 10 pfu/cell dl520
Experimental: In order to determine the effect of Irinotecan on adenoviral replication 10^6 U373 tumour cells were plated in 10 cm^2 Petri dishes. In a first reaction 5 μM Irinotecan was added after 24 hours. After another 24 hours the cells were infected with 10 pfu/cell dl520. After incubation of 3 days without Irinotecan DNA was isolated in accordance with the procedure described in example 10.
In a parallel reaction the thus prepared U373-cells were not pre-incubated with Irinotecan. After 48 hours of cultivating the cells without Irinotecan, they were infected with 10 pfu/cell dl520 and subsequently incubated without Irinotecan for another 3 days. DNA was isolated as described above.
Subsequently […] were digested with restriction enzyme Kpn I and a Southern Blot analysis performed. A part of the adenoviral genome (position: 22734-24235) generated by means of PCR was used as a probe.

[2] = test system: U373 cells; experiment: Oncolysis of U373 cells by dl520 with Irinotecan and Trichostatin A, crystal violet; format: cell-based; conditions: U373, 2 μM Irinotecan
Experimental: 200,000 U373 cells were plated in a 6 well plate. After 24 hours either 2 μM Irinotecan or only 1 μM Trichostatin A or 1 μM Irinotecan+0.5 μM Trichostatin were added to the medium. After 24 hours of incubation the cells were infected with 10, 20 and 30 pfu/cell dl520. After 3-5 days the analysis was performed using crystal violet staining. The assays were performed in duplicate.
The further 6 well plates 2, 3 and 4 depicted in FIG. 22, herein also referred to as panels 2, 3 and 4, were basically treated in accordance with this scheme. The individual wells were inoculated with U373 cells as previously described and the cells cultivated therein. The wells were inoculated with 10, 20 or 30 pfu/cell dl520 in duplicate, whereby the difference between the three 6 well plates resided in the kind of cytostatics used. In panel 2 2 μM Irinotecan, in panel 3 […] and in panel 4 1 μM Irinotecan and 0.5 μM Trichostatin A was added to the individual plates.

[3] = test system: U373 tumour cells; experiment: Southern blot of dl520 replication after Trichostatin A; format: cell-based; conditions: U373, 0.25, 0.5 and 0.75 μM Trichostatin A, 10 pfu/cell dl520
Experimental: In order to test the effect of Trichostatin A on adenoviral replication, 10^6 U373 tumour cells were plated in 10 cm^2 Petri dishes. After 24 hours 0.25, 0.5 and 0.75 μM Trichostatin A was added. After another 24 hours the cells were infected with 10 pfu/cell dl520.
After 3 days of incubation in medium without Trichostatin DNA was isolated. Subsequently 2 μg DNA were digested with restriction enzyme Kpn I and a Southern Blot analysis performed. A part of the adenoviral genome (position: 22734-24235) generated by means of PCR was used as a probe.

[4] = test system: Coxsackievirus-adenovirus-receptor (CAR) on U373 cells; experiment: FACS analysis of CAR expression; format: cell-based; conditions: U373, 1 μM Trichostatin, 24 hours
Experimental: 200,000 U373 cells were plated in 6 well plates. After 24 hours the cells were cultivated with 1 μM Trichostatin for 24 hours. After another 24 hours the cells were isolated. Subsequently, analysis of CAR expression was performed according to a standard protocol using Facs-analysis and the primary antibody anti-CAR clone RmcB from the company Upstate, and a rabbit-anti-mouse FITC as secondary antibody (company DAKO).

[5] = test system: U2OS cells; experiment: Oncolytic assay with daunorubicine and dl520, crystal violet; format: cell-based, human; conditions: 40 ng/ml
Experimental: (§1) In the practising of the oncolytic assays the following procedure was followed: 200,000 cells (HeLa and U2OS, respectively) were plated into each well of a 6 well plate. On the next day 40 ng/ml (final concentration) of daunorubicine were added. After 3 hours of incubation the cells were infected with 10 and 30 pfu dl520/cell, respectively. Subsequently, the cells were incubated in cytostatic free medium. After 3-5 days the cells were stained using crystal violet.

[6] = test system: HeLa cells; experiment: as above; format: cell-based; conditions: 40 ng/ml
Experimental: as §1

Question: CCc1c2c(nc3ccc(OC(=O)N4CCC(N5CCCCC5)CC4)cc13)-c1cc3c(c(=O)n1C2)COC(=O)[C@]3(O)CC [Irinotecan] was tested. Which “adenoviral (dl520) replication compared to untreated control” value [1] did it give?
Answer: significantly increased

Question: And the “dl520 titer at which the cells were lysed” value [2]?
Answer: 30 pfu/cell

Question: Which results are given for CC(/C=C/C(=O)NO)=C\[C@@H](C)C(=O)c1ccc(N(C)C)cc1 [Trichostatin A]?
Answer: viral (dl520) replication compared to untreated controls [3]: significantly increased; CAR-positive cells [4]: 56.2%

Question: With COc1cccc2c1C(=O)c1c(O)c3c(c(O)c1C2=O)C[C@@](O)(C(C)=O)C[C@@H]3O[C@H]1C[C@H](N)[C@H](O)[C@H](C)O1 [daunorubicine] as the compound, how does the “effect of daunorubicine on replication of dl520” value [5] read?
Answer: induces the replication of dl520

Question: What about the “effect of daunorubicine on replication of dl520” value [6] of the same compound?
Answer: induces the replication of dl520
